Reference: patent US20180094320A1, “IN VITRO DRUG METABOLISM REAGENT AND USES THEREOF” (priority 2016, published 2018)
Like-named read-outs stand apart in the source and are kept apart here.

What was measured:
[1] = known in vivo hepatic clearance, human; cited from earlier work
[2] = test system: permeabilized human hepatocytes
Description: The drugs evaluated were added at a concentration of 1 μM to a hepatocyte culture of 1 million cells/ml.

2J2 = target: T1, 2J2 (Homo sapiens, UniProt P51589); test: Pathway-selective substrate metabolism in human enterocytes, 2J2; assay type: in vitro ADME; details: Intact Cryopreserved Enterocytes; 30 min, 37° C.
T1 construct: enterocytes are isolated from human intestines by collagenase digestion; endogenous in cells; host or cells: primary human enterocytes, intact or permeabilized with cofactors
T1 sequence (P51589 1-502): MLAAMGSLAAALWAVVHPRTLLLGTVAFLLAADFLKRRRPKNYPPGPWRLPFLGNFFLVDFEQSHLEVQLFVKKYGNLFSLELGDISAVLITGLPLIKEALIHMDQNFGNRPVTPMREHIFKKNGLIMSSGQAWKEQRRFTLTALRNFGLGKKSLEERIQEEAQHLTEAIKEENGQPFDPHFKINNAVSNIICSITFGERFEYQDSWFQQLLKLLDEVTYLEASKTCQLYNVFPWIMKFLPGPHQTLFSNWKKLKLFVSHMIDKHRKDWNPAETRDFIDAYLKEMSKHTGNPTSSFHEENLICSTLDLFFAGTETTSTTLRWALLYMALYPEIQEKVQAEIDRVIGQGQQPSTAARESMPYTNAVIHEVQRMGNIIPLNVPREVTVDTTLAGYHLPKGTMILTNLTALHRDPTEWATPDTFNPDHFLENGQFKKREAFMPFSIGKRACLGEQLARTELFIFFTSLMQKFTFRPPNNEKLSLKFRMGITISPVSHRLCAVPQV

[3] = test system: permeabilized human hepatocytes; test: Cofactor-directed metabolic pathway selection of coumarin metabolism; assay type: in vitro ADME; details: 75 micromolar coumarin, 30 min
Description: Intact human hepatocytes allow metabolism of a drug by all hepatic pathways, selection of a specific metabolic pathway for evaluation is not easily accomplished. […] The metabolism of coumarin was used as a model for cofactor directed metabolic pathway selection. See FIG. 12 for the co-factor directed pathway selection of coumarin metabolism with the present permeabilized human hepatocytes. The exogenous drug metabolizing enzyme co-factors used were 2 mM NADPH, 2 mM NADPH+1 mM PAPS and 2 mM NADPH+5 mM […], and no cofactor addition used as a control.

human enterocytes = test: 7-ethoxycoumarin O-deethylation (ECOD) activity in human enterocytes; assay type: in vitro ADME; details: Group D permeabilized enterocytes with cofactors compared with Groups A-C (intact ± cofactors, permeabilized without cofactors)
Description: The assay was performed essentially as disclosed in Example 2, wherein the in vitro reagent comprises enterocytes and exogenous drug metabolizing enzyme co-factors (NADPH, UPGA, and PAPS), herein referred to as “cofactors”. As comparators, intact enterocytes, that were not permeabilized, were used wherein one group was incubated with cofactors and another group was incubated without cofactors, each in the presence of the xenobiotic test compound. Permeabilized enterocytes incubated without cofactors were used as a control. The test groups were: Group A—intact enterocytes incubated without cofactors; Group B—intact enterocytes incubated with cofactors; Group C—permeabilized enterocytes incubated without cofactors (control); Group D—the in vitro reagent (permeabilized enterocytes incubated with cofactors). […] Permeabilization (by freezing without cryoprotectants followed by thawing) allows maximal interaction of the intracellular enzymes with the substrate (7-ethoxycoumarin), and the addition of cofactors overcomes the dilution of intracellular cofactors due to permeabilization.

SMILES | Observed in vivo CIsys [1] [L/h/kg] | other results
O=P1(N(CCCl)CCCl)NCCCO1 (stereo not drawn) [Cyclophosphamide] |  | cytotoxicity on HEK 293 cells (cellular ATP content) (HEK293 cells; with permeabilized human hepatocytes (cofactor supplemented) vs boiled or no hepatocytes, 24 hours): enhanced
O=C1Nc2ccc(Cl)cc2C(c2ccccc2Cl)=NC1O (stereo not drawn) [Lorazepam] | 0.066 | 
COc1ccc2c(c1)[C@]13CCCC[C@@H]1[C@H](C2)N(C)CC3 [Dextromethorphan] | 0.516 | Permeabilized Hepatocytes Average (predicted clearance) [2]: 7.3
CN(C)C/C=C/C(=O)Nc1cc2c(Nc3ccc(F)c(Cl)c3)ncnc2cc1O[C@H]1CCOC1 [Afatinib] | 0.9 | 
COc1ccc(CCN2CCC(Nc3nc4ccccc4n3Cc3ccc(F)cc3)CC2)cc1 [Astemizole] |  | Metabolic Activity, O-Demethyl Astemizole formation (2J2): BLQ
O=C(O)Cc1ccccc1Nc1c(Cl)cccc1Cl [Diclofenac] | 0.252 | 
O=P1(NCCCl)OCCCN1CCCl (stereo not drawn) [Ifosfamide] |  | cytotoxicity on HEK 293 cells (cellular ATP content) (HEK293 cells): enhanced
CN1C(=O)CN=C(c2ccccc2)c2cc(Cl)ccc21 [Diazepam] | 0.024 | 
NC(=O)N1c2ccccc2C=Cc2ccccc21 [Carbamazepine] | 0.024 | 
CC(C)NCC(O)COc1ccc(CCOCC2CC2)cc1 (stereo not drawn) [Betaxolol] | 0.288 | 
O=c1ccc2ccccc2o1 [coumarin] |  | Cofactor selection Result (metabolite formation) ([3]; NADPH only (2 mM)): minimal sulfation and glucuronidation; Cofactor selection Result (metabolite formation) ([3]; No co-factors): No metabolism
CCOc1ccc2ccc(=O)oc2c1 [7-ethoxycoumarin] |  | 7-ethoxycoumarin O-deethylation (ECOD) activity (human enterocytes): Highest activity
Cc1cc(=O)n(-c2ccccc2)n1C [Antipyrine] | 0.03 | 
